These are literature values, as cited in patent US20120064058A1, “COMPOSITIONS FOR PROTEIN-BASED DIETARY PRODUCTS” (ITALFARMACIA SRL, priority 2008, published 2012).

Data set [1] deals with rats.
The subject of data set [2] is diabetic rats.
The mark [3] stands for this setting: compared with untreated diabetic rats.

As for `N=C(N)NCCC[C@H](N)C(=O)O` [L-Arginine], the “excretion of orotic acid in the urine” value in data set [1] is “less excretion of orotic acid in the urine”. Further, the kidney hypertrophy result in data set [1] (long-term consequence of a protein rich regimen) is reported as “can prevent kidney hypertrophy”.

For the compound `NCCS(=O)(=O)O` [L-Taurine], the renal functionality result in data set [2] is on record as “beneficial effects on renal functionality”.

As to `NCC(=O)O` [Glycine], in data set [2] (setting [3]), the “expression of O-acetyl sialic acid in brain vessels” value is listed as “diminished expression”; the “incidence of opacity in lens and microaneurysms in the eyes” value is given as “reduced incidence”. Also, the corporal weight loss entry in data set [2] (in comparison with non-treated animals) is given as “less intense corporal weight loss”.
